In publication PMC8403366, “Functional significance of gain-of-function H19 lncRNA in skeletal muscle differentiation and anti-obesity effects” (Genome Medicine, 2021):

Columns and labels:
[1] = target: T1, DMD C-terminus (ZnF domain) WT (human, UniProt P11532 3046-3685); assay: alpha assay saturation; conditions: EMSA and RNA-protein binding: 50 mM Tris-HCl pH 7.9, 10% glycerol, 100 mM KCl, 5 mM MgCl2, 10 mM beta-ME, 0.1% NP-40, 30 C, 30 min (EMSA) or 1 h (dot blot) …
[2] = target: T1, DMD C-terminus (ZnF domain) WT; assay: alpha assay competition; conditions: EMSA and RNA-protein binding: 50 mM Tris-HCl pH 7.9, 10% glycerol, 100 mM KCl, 5 mM MgCl2, 10 mM beta-ME, 0.1% NP-40, 30 C, 30 min (EMSA) or 1 h (dot blot) …
iPSC-SkMC = assay: Immunoblot of DMD, phosphorylated DMD and Ub-DMD in iPSC-SkMC; assay type: cell-based, human; conditions: for DMD phosphorylation / DMD protein levels / Ub-DMD: BMD iPSC-SkMC
Excerpt: The human skin fibroblasts GM09503 (healthy donor), GM02298 (BMD patient), or GM04569 (BMD patient) were obtained from the Coriell Institute and reprogramed to iPSC by Baylor Human Stem Cell Core. Clinical information is summarized in Additional file 2: Table S2. iPSCs from patients with BMD were used to study the potential molecular mechanisms of DMD stability within pathological context. iPSCs were maintained in feeder-free conditions using the mTeSR™1 medium (Stemcell technologies) on hESC-Qualified Matrigel (Corning) coated plates at 37 °C with 5% CO2. H19 knockout iPSC cell lines were generated using the CRISPR-Cas9 genome editing system, as described previously. iPSCs transfected with sgRNAs were selected with puromycin (250 ng/ml) for 7 days. Emerging iPSC colonies were picked individually and further expanded in mTeSR™1 medium. The presence of targeted gene knockout was confirmed by further genotyping characterization and PCR product sequencing.
For myogenic differentiation, iPSCs were differentiated into skeletal muscle cells using Skeletal Muscle Differentiation Kit (Genea Biocells) according to the manufacturer’s protocol. Briefly, iPSCs were plated onto a collagen I coated plate and maintained for 6–10 days in Skeletal Muscle Induction Medium (Genea Biocells) until confluent. Dissociated myogenic precursors were then plated on a collagen I coated plate and cultured in Skeletal Myoblast Medium (Genea Biocells) for 6–8 days. When confluent, cells were maintained in Myotube Medium or Myotube Fusion Medium (Genea Biocells). Cryopreserved stocks of myoblasts Genea002 were obtained from Genea Biocells. Genea002 was initially maintained in Skeletal Myoblast Medium and changed to Myotube Medium or Myotube Fusion Medium when confluent.

[3] = tested on: interaction between H19 and DMD; assay: RIP assay in iPSC-SkMC; assay type: cell-based, human; conditions: for interaction between H19 and DMD: iPSC-SkMC from healthy donor 09503 or BMD patient 02298; for interaction between HuR and Actin: specificity control
MRCKα = conditions: cited from earlier work
Excerpt: (§1) SNCA plays important roles in Parkinson’s disease through mediating the aggregation of protofibrils. […] MRCKα is a se ...

SNCA = conditions: cited from earlier work
Excerpt: as §1

C57BL/6 J mice = assay: RT-qPCR of H19 and Dmd in TA of treated mice; assay type: in vivo, mouse; conditions: male mice, n = 5
Protocol: Total RNA was isolated from the snap-frozen samples using the RNeasy Plus Mini Kit (Qiagen). cDNA was synthesized from 1 μg of RNA using the iScript™ cDNA Synthesis Kit (Bio-Rad). Quantitative real-time PCR was performed using SsoAdvanced™ Universal SYBR® Green Supermix (Bio-Rad).

[4] = target: T1, DMD C-terminus (ZnF domain) WT; assay: alpha assay competition; EMSA and RNA-protein binding: 50 mM Tris-HCl pH 7.9, 10% glycerol, 100 mM KCl, 5 mM MgCl2, 10 mM beta-ME, 0.1% NP-40, 30 C, 30 min (EMSA) or 1 h (dot blot); alpha assay conditions not in the material; conditions: protein: recombinant, tags: His, label: 32P (EMSA), single strand

T1 sequence (P11532 3046-3685): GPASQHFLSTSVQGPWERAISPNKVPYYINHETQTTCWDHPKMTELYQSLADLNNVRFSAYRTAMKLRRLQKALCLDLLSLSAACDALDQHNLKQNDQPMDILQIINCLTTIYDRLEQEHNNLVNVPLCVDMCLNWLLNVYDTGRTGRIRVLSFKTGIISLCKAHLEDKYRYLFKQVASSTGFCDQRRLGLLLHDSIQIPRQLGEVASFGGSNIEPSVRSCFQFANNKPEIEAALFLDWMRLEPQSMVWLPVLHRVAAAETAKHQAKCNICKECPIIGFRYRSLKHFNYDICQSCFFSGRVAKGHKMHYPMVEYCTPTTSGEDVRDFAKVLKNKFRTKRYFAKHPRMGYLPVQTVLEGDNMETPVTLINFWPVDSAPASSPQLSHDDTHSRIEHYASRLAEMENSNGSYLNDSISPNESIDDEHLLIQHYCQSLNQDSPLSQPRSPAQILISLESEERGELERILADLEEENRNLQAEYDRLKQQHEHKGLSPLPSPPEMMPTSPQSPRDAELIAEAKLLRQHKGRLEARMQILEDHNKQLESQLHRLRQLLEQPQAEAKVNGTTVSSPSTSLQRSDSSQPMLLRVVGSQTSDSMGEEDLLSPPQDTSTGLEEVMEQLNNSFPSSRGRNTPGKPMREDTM

## mouse H19 sense transcript
[1]
  Kd: 0.0786 µM

## H19-WT mimic
[2]
  Kd: 0.13 µM

## O=C(Nc1cn[nH]c1-c1ccccn1)c1nn(C2CCNCC2)cc1Cl [BDP5290]
iPSC-SkMC
  DMD phosphorylation: reduced
  DMD protein levels: improved
  Ub-DMD: reduced
[3]
  interaction between H19 and DMD: significantly improved
  interaction between HuR and Actin: minimal effects
MRCKα
  IC50: 0.01 µM

## N#Cc1c(C(F)(F)F)c([N+](=O)[O-])c(-c2cccc([N+](=O)[O-])c2)[nH]c1=O [SC-D, SynuClean-D]
iPSC-SkMC
  DMD phosphorylation: reduced
  DMD protein levels: improved
  Ub-DMD: reduced
iPSC-SkMC; iPSC-SkMC with exogenous expression of SNCA
  phosphorylation of DMD: attenuated
[3]
  interaction between H19 and DMD: significantly improved
  interaction between HuR and Actin: minimal effects
SNCA
  SNCA aggregation in muscle tissues: reduces

## N-terminal-ELTNEIPAELTNEIPA-Linker-5'-[2’-F-C][2’-F-U][2’-F-C][2’-F-U][2’-F-U][2’-F-A][2’-F-C][2’-F-A][2’-F-A][2’-F-U][2’-F-C][2’-F-U][2’-F-G][2’-F-A][2’-F-G][2’-F-C][2’-F-U][2’-F-U][2’-F-U][2’-F-C][2’-F-C][2’-F-A][2’-F-C][2’-F-A][2’-F-G][2’-F-U][2’-F-U][2’-F-U][2’-F-C][2’-F-C]-3' [AGR-H19-Rlof, agrin peptide conjugated to H19 RNA loss-of-function mimic]
C57BL/6 J mice
  expression of H19 in TA: minimal effects
  expression of the Dmd transcript in TA: minimal effects

## N-terminal-ELTNEIPAELTNEIPA-Linker-5'-[2'-F-U][2'-F-G][2'-F-G][2'-F-C][2'-F-C][2'-F-A][2'-F-A][2'-F-U][2'-F-G][2'-F-C][2'-F-C][2'-F-C][2'-F-U][2'-F-G][2'-F-G][2'-F-C][2'-F-U][2'-F-C][2'-F-A][2'-F-C][2'-F-A][2'-F-A][2'-F-A][2'-F-U][2'-F-A][2'-F-C][2'-F-C][2'-F-A][2'-F-C][2'-F-U]-3' [AGR-Scr, agrin peptide conjugated to scramble oligonucleotides; control, reference compound]
C57BL/6 J mice
  expression of H19 in TA: minimal effects
  expression of the Dmd transcript in TA: minimal effects

## human H19 sense transcript
[1]
  Kd: 0.0711 µM

B1: hH19 1951-1980 Rgof (G1955A/G1971A) (ssRNA)
RNA: CUUUAUUUCUGAGCUUUCCUAUCUUUCCUU
[4]
  Kd: 0.0149 µM

B2: hH19 1951-1980 WT (ssRNA)
RNA: CUUUGUUUCUGAGCUUUCCUGUCUUUCCUU
[4]; biotin or unlabeled (alpha assay)
  Kd: 0.116 µM
